What was measured:
L929 normal cells = test: MTT cell viability assay, L929 normal cells; format: cell-based, murine; conditions: L929 normal cell line, 48 h
Method: (§1) The murine sarcoma-180 tumor cells (S180) (ATCC# TIB-66) and normal murine fibroblast cells (L-929) (ATCC# CCL-1) were cultured in suspension in RPMI 1640 and DMEM media (Sigma Chemical Co., MO), respectively, supplemented with 10% fetal calf serum, 100 µg/mL penicillin, and 100 µg/mL streptomycin. The cultures were incubated in a humidified incubator (Thermo Scientific) at 37°C with 5% CO2.
(§2) The cytotoxic effects of the amino acid ruthenium complexes were evaluated using an MTT assay with S180 tumor cells and L929 normal cells as described previously. Briefly, 1.0×10^5 S180 cells and 2.0×10^4 L929 cells were plated in 96-well tissue culture plates and treated with different concentrations of amino acid ruthenium complexes (0.2–200 µM) for 48 h. After treatment, 10 µL of MTT (5 mg mL^−1) was added to each well, and the plates were incubated at 37°C for an additional 3 h. The purple formazan crystals were dissolved in 50 µL of SDS, and the absorbance was determined at 545 nm using a Stat Fax 2100 microplate reader (Awareness Technology, Palm City, FL, USA). The cell viability was calculated as follows: viability (%) = (absorbance of the treated wells)/(absorbance of the control wells) ×100. The IC50 (complex concentration (µM) that results in a 50% reduction in cellular viability) was obtained from dose-response curves using GraphPad Prism 4.02 for Windows (GraphPad Software, San Diego, CA, USA).

S180 tumor cells = test: MTT cell viability assay, S180 tumor cells; format: cell-based, murine; conditions: S180 tumor cell line, 48 h
Method: as §1, §2

pBR322 plasmid DNA = system: pBR322 plasmid DNA; parameters: method as in PMID 21875763; conditions: previous study; cited from earlier work
S180 cells = system: S180 cells; parameters: method as in earlier work; conditions: previous studies; cited from earlier work

Row | SMILES | IC50 (L929 normal cells) [µM] | IC50 (S180 tumor cells) [µM] | effect on plasmid DNA (AFM images) (pBR322 plasmid DNA) | numbers of Annexin V-positive S180 cells (S180 cells)
1 | N.N.[Cl][Pt][Cl] [Cisplatin, cisplatin, reference compound] | 29.1 ± 1.88 | 64.83 ± 0.17 |  | 
2 | CSCC[C@H](N)C(=O)[O-].F[P-](F)(F)(F)(F)F.[Ru+2].c1ccc(-c2ccccn2)nc1.c1ccc(P(CCCCP(c2ccccc2)c2ccccc2)c2ccccc2)cc1 [Complex 1, [Ru(met)(bipy)(dppb)]PF6] | 27.4 ± 3.32 | 22.5 ± 3.4 |  | 
3 | CC(C)C[C@H](N)C(=O)[O-].F[P-](F)(F)(F)(F)F.[Ru+2].c1ccc(-c2ccccn2)nc1.c1ccc(P(CCCCP(c2ccccc2)c2ccccc2)c2ccccc2)cc1 [Complex 3, [Ru(leu)(bipy)(dppb)]PF6] | 47.1 ± 5.94 | 38.2 ± 7 |  | 
4 | F[P-](F)(F)(F)(F)F.F[P-](F)(F)(F)(F)F.N[C@@H](CC(=O)O)C(=O)O.[Ru+2].c1ccc(-c2ccccn2)nc1.c1ccc(P(CCCCP(c2ccccc2)c2ccccc2)c2ccccc2)cc1 [Complex 4, [Ru(aspac)(bipy)(dppb)](PF6)2] | 107 ± 8.98 | 42.2 ± 3.98 |  | 
5 | C[C@H](N)C(=O)[O-].F[P-](F)(F)(F)(F)F.[Ru+2].c1ccc(-c2ccccn2)nc1.c1ccc(P(CCCCP(c2ccccc2)c2ccccc2)c2ccccc2)cc1 [Complex 5, [Ru(ala)(bipy)(dppb)]PF6] | 97.8 ± 8.99 | 50.2 ± 1.03 |  | 
6 | F[P-](F)(F)(F)(F)F.O=C1[O][Ru-4]23([n+]4ccccc41)([n+]1ccccc1-c1cccc[n+]12)[P+](c1ccccc1)(c1ccccc1)CCCC[P+]3(c1ccccc1)c1ccccc1 [[Ru(pic)(dppb(bipy)]PF6] |  |  | strong aggregation of plasmid DNA | 
7 | N.N.N.N.[Cl-].[Cl][Ru+][Cl] [cis-[RuCl2(NH3)4]Cl] |  |  |  | increased the numbers of Annexin V-positive S180 cells
